Laboratory results from PubChem BioAssay AID2060889 (Molecular Pharmacology Branch, DTP, NCI, 2025).

Test system: LG0567-F671-PDC complex spheroids viability
Assay: Anticancer human tumor LG0567-F671-PDC patient-derived lung adenocarcinoma cell line growth inhibition [RAS]
Conditions: for IC50: curve of first compound; for viability, T/C: stronger effect = lower value; active means viability on the fitted dose curve at most 10% of control; inactive means the rest
Procedure, shortened: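 Multi-cell-type spheroids: tumor cells plus HUVEC endothelial cells and mesenchymal stem cells. RAS-pathway inhibitors were combined with targeted agents, each dosed in half-log steps down from clinical Cmax, or from 10 microM when Cmax was unknown.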
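Further: spheroids exposed to compound for seven days before readout.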
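Wherever IC50 is given: luminescence signal used as a proxy for viable cells.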

CC(C)n1nc(-c2ccc3oc(N)nc3c2)c2c(N)ncnc21 + C=CC(=O)N1CCN(c2nc(OCC3CCCN3C)nc3c(F)c(-c4nc(N)cc(C)c4C(F)(F)F)c(Cl)cc23)C(C)C1
active: viability, T/C (second compound 0.00316 µM, first compound 0.0316 µM) 7.75% | viability, T/C (second compound 0.00316 µM, first compound 0.1 µM) 6.24% | viability, T/C (second compound 0.01 µM, first compound 0.00316 µM) 10.5% | viability, T/C (second compound 0.01 µM, first compound 0.01 µM) 7.96% | viability, T/C (second compound 0.01 µM, first compound 0.0316 µM) 7.27% | viability, T/C (second compound 0.01 µM, first compound 0.1 µM) 4.67% | viability, T/C (second compound 0.0316 µM, first compound 0.00316 µM) 9.25% | viability, T/C (second compound 0.0316 µM, first compound 0.01 µM) 10.8% | viability, T/C (second compound 0.0316 µM, first compound 0.0316 µM) 6.75% | viability, T/C (second compound 0.0316 µM, first compound 0.1 µM) 4.77% | viability, T/C (second compound 0.1 µM, first compound 0.00316 µM) 10.9% | viability, T/C (second compound 0.1 µM, first compound 0.01 µM) 8.59% | viability, T/C (second compound 0.1 µM, first compound 0.0316 µM) 7.47% | viability, T/C (second compound 0.1 µM, first compound 0.1 µM) 4.81% | viability, T/C (second compound 0.316 µM, first compound 0.00316 µM) 9.88% | viability, T/C (second compound 0.316 µM, first compound 0.01 µM) 7.87% | viability, T/C (second compound 0.316 µM, first compound 0.0316 µM) 6.07% | viability, T/C (second compound 0.316 µM, first compound 0.1 µM) 4.55% | viability, T/C (second compound 1 µM, first compound 0.01 µM) 10.9% | viability, T/C (second compound 1 µM, first compound 0.0316 µM) 7.1% | viability, T/C (second compound 1 µM, first compound 0.1 µM) 5.83%
inactive: viability, T/C (second compound 0.00316 µM, first compound 0.000316 µM) 13.7% | viability, T/C (second compound 0.00316 µM, first compound 0.001 µM) 17.2% | viability, T/C (second compound 0.00316 µM, first compound 0.00316 µM) 11.4% | viability, T/C (second compound 0.00316 µM, first compound 0.01 µM) 9.86% | viability, T/C (second compound 0.01 µM, first compound 0.000316 µM) 12.6% | viability, T/C (second compound 0.01 µM, first compound 0.001 µM) 10.8% | viability, T/C (second compound 0.0316 µM, first compound 0.000316 µM) 12.2% | viability, T/C (second compound 0.0316 µM, first compound 0.001 µM) 11.5% | viability, T/C (second compound 0.1 µM, first compound 0.000316 µM) 11.1% | viability, T/C (second compound 0.1 µM, first compound 0.001 µM) 10.7% | viability, T/C (second compound 0.316 µM, first compound 0.000316 µM) 11.6% | viability, T/C (second compound 0.316 µM, first compound 0.001 µM) 10.8% | viability, T/C (second compound 1 µM, first compound 0.000316 µM) 14.2% | viability, T/C (second compound 1 µM, first compound 0.001 µM) 11.4% | viability, T/C (second compound 1 µM, first compound 0.00316 µM) 14.3%
< 0.316 nM: IC50 (second compound 0.00316 µM) | IC50 (second compound 0.01 µM) | IC50 (second compound 0.0316 µM) | IC50 (second compound 0.1 µM) | IC50 (second compound 0.316 µM) | IC50 (second compound 1 µM)
